# According to patent US20100113436A1, “DISPIRO TETRAOXANE COMPOUNDS AND THEIR USE IN THE TREATMENT OF MALARIA AND/OR CANCER” (priority 2006, published 2010):
# Several values for one entry are separate records, joined by “and”; a condition that tells them apart may be missing. Identical values can stand only once. Like-named read-outs stand apart in the source and are kept apart here. Marks after values point to notes of the source that are not given here.
# Key:
# [1] = tested on: 3D7 strain of Plasmodium falciparum; test: In vitro antimalarial activity, 48-h [3H]-hypoxanthine incorporation assay; assay type: cell-based
# Experimental: The 3D7 strain of Plasmodium falciparum was used in this study. This strain is known to be […] Parasites were maintained in continuous culture using the method of Jensen and Trager^4. […] Stock drug solutions were prepared in 100% dimethylsulphoxide (DMSO) and diluted to the appropriate concentration using complete medium. Assays were performed in sterile 96-well microlitre plates, each plate contained 200 μl of parasite culture (2% parasitemia, 0.5% haematocrit) with or without 10 μl drug dilutions. Each drug was tested in triplicate and parasite growth compared to control wells (which constituted 100% parasite growth). […] IC50 values were calculated by interpolation of the probit transformation of the log dose-response curve.
# [2] = tested on: Salmonella typhimurium NM2009; test: Salmonella typhimurium SOS/umu genotoxicity assay; conditions: for Max. Fold Increase / Potential genotox: −S9
# Description: (§1) This assay is based on the ability of DNA damaging agents to induce the expression of the umu operon. The Salmonella strains have a plasmid pSK1002 which carries an umuC-lacZ fused gene that produces a hybrid protein with β-galactosidase activity and whose expression is controlled by the umu regulatory region.
# [3] = tested on: Salmonella typhimurium TA1535/pSK1002; test: Salmonella typhimurium SOS/umu genotoxicity assay; conditions: for Max. Fold Increase / Potential genotox: −S9
# Description: as §1
# [4] = tested on: Plasmodium falciparum PH3; test: In vitro analysis versus strains of Plasmodium falciparum: PH3; assay type: cell-based
# [5] = tested on: Plasmodium falciparum TM4; test: In vitro analysis versus strains of Plasmodium falciparum: TM4; assay type: cell-based
# [6] = tested on: Plasmodium falciparum DD2; test: In vitro analysis versus strains of Plasmodium falciparum: DD2; assay type: cell-based
# Plasmodium yoelli = test: 4-day Peter's suppressive test; assay type: in vivo; conditions: 4-day Peter's test, mice
# Experimental: Selections of the compounds were screened for in vivo activity. In vivo data (Table 6) was determined using 30 mg/kg oral (po) and subcutaneous (sc) doses in a 4-days Peter's test. For subcutaneous administration, compounds were dissolved in 10% dimethylsulfoxide (DMSO) 0.05% Tween 80 (Sigma, Dorset, UK) in distilled water. For oral administration, compounds were dissolved in standard suspending formula (SSV) [0.5% sodium carboxymethylcellulose, 0.5% benzyl alcohol, 0.4% Tween 80, 0.9% NaCl (all Sigma)]. Subcutaneous (s.c) or oral (p.o) treatment was done with 0.2 ml of a solution of the test compound two hours (day 0) and on days 1, 2, and 3 post infections. Parasitaemia was determined by microscopic examination of Giemsa stained blood films taken on day 4. Microscopic counts of blood films from each mouse were processed using MICROSOFT@EXCELL spreadsheet (Microsoft Corp.) and expressed as percentage of inhibition from the arithmetic mean parasitaemias of each group in relation to the untreated group.
# [7] = tested on: Plasmodium falciparum HB3; test: In vitro analysis versus strains of Plasmodium falciparum: HB3; assay type: cell-based
# Plasmodium falciparum K1 = test: In vitro analysis versus strains of Plasmodium falciparum: K1; assay type: cell-based; conditions: K1 strain
# Vero Kidney = test: Cellular cytotoxicity screen, Resazurin reduction; assay type: cell-based, African green monkey, Cercopithecus aethiops
# Description: (§2) Values represent Tox 50 in μM. Cytotoxicity measured by Resazurin reduction.
# (§3) Single full dose response curves generated using 10 independent drug concentrations. The 100 therapeutic index (TI) is the ration of the TOX 50 to the IC50 for the specific compound against the 3D7 P. falciparum isolate. The primary hepatocytes have demonstrable drug metabolising activity. The tetraoxane derivatives are remarkably non-toxic in these screens with in vitro TIs of between 5000 to 17000!.
# [8] = tested on: MRC-5 Embryonal lung, diploid; test: Cellular cytotoxicity screen, Resazurin reduction; assay type: cell-based, Human
# Description: as §2, §3
# [9] = tested on: Plasmodium falciparum GC03; test: In vitro analysis versus strains of Plasmodium falciparum: GC03; assay type: cell-based
# [10] = tested on: HepG2 Human hepatocyte carcinoma; test: Cellular cytotoxicity screen, Resazurin reduction; assay type: cell-based; conditions: Hep2G
# Description: as §2, §3
# [11] = tested on: L6 Sketal muscle myoblast; test: Cellular cytotoxicity screen, Resazurin reduction; assay type: cell-based, rat
# Description: as §2, §3
# [12] = tested on: H9c2(2-1) Myocardium, heart; test: Cellular cytotoxicity screen, Resazurin reduction; assay type: cell-based, rat; conditions: H9c(2-1)
# Description: as §2, §3
# P. berghei ANKA [13] = test: In vivo dose response screening against P. berghei ANKA; parameters: species or system mice; conditions: Chloroquine Resistant Strains of the P. Berghei ANKA, Table 7; for ED50: Plasmodium berghei, in Mus musculus
# Experimental: Compound 29c, 29h and 291 were then subjected to dose response experiment against the P. berghei ANKA and the results are summarized in Table 7 below.
# [14] = tested on: Plasmodium falciparum V1S; test: microbe, parasite or virus in culture; assay type: cell-based
# P. berghei ANKA [15] = test: In vivo dose response screening against P. berghei ANKA; conditions: P. berghei ANKA infected mice, Table 9
# [16] = ratio TOX 50 to IC50 against 3D7 P. falciparum
# [17] = 3D7, 3D7 strain, mean of triplicate results, Table 5, read-out: Mean IC50
smiles,measurement,setting,value
"O=C(CC1CCC2(CC1)OOC1(OO2)C2CC3CC(C2)CC1C3)N1CCOCC1 (stereo not shown) [Tetraoxane 29h, Adamantly-1-Morpholin-4-yl tetraoxane acetamide]",IC50,"[1]; 3D7, read-out: Mean IC50",5.2 nM
same,MCE NM2009 (Maximum Co w/o effects on bacteria growth or beta-galactosidase production),[2]; Salmonella typhimurium,50 µM
same,Max. Fold Increase,[2],1.22 ± 0.03 fold
same,Potential genotox,[2],NEG
same,MCE TA1535 (Maximum Co w/o effects on bacteria growth or β-galactosidase production),[3]; Salmonella typhimurium,50 µM
same,genotoxicity result in SOS/umu assay,"[3]; both strains TA1535/pSK1002 and NM2009, highest concentration tested 50 μM, absence and presence of S-9 mix",Negative
same,Max. Fold Increase,[3],1.04 ± 0.04 fold
same,Potential genotox,[3],NEG
same,IC50,"[4]; PH3 strain, read-out: IC50",0.3 nM
same,melting point,,139 to 140 °C
same,IC50,"[5]; TM4 strain, read-out: IC50",0.6 nM
same,IC50,"[6]; DD2 strain, read-out: IC50",0.6 nM
same,Percentage of inhibition at 30 mg/kg (p.o),Plasmodium yoelli,100%
same,IC50,"[7]; HB3 strain, read-out: IC50",1.4 nM
same,IC50,Plasmodium falciparum K1,0.8 nM
same,Tox 50,Vero Kidney,>50 µM
same,Theraputic Index (TI),Vero Kidney; [16],>16666
same,Tox 50,[8],>50 µM
same,Theraputic Index (TI),[8]; [16],>16666
same,IC50,"[9]; GC03 strain, read-out: IC50",0.9 nM
same,Tox 50,[10],>50 µM
same,Theraputic Index (TI),[10]; [16],>16666
same,solubility,physchem,50 µM
same,Tox 50,[11],23 µM
same,Theraputic Index (TI),[11]; [16],7666
same,Tox 50,[12],>50 µM
same,Theraputic Index (TI),[12]; [16],>16666
same,ED90,P. berghei ANKA [13],3.88 mg/kg
same,ED50,P. berghei ANKA [13],3.18 mg/kg
"O=C(CC1CCC2(CC1)OOC1(CCCCC1)OO2)N1CCOCC1 [Tetraoxane 27h, 1-Morpholin-4-yl-2-(7,8,15,16-tetraoxa-dispiro[5.2.5.2]hexadec-3-yl)-ethanone]",IC50,[1]; [17],22.2 nM
same,melting point,,126 to 128 °C
same,Percentage of inhibition at 30 mg/kg (p.o),Plasmodium yoelli,33.0%
"CCN(CC)CCCC(C)Nc1ccnc2cc(Cl)ccc12 (stereo not shown) [Chloroquine, reference compound]",IC50,"[1]; 3D7, read-out: Mean IC50",8.5 nM
same,IC50,[4],72 nM
same,IC50,[5],91.3 nM
same,IC50,[6]; DD2,80.5 nM
same,IC50,[7]; HB3,6.6 nM
same,IC50,[9],8.1 nM
same,IC50,[14],83.7 nM
CN1CCN(C(=O)CC2CCC3(CC2)OOC2(OO3)C3CC4CC(C3)CC2C4)CC1 (stereo not shown) [Tetraoxane 29l],IC50,[1]; [17],0.5 nM
same,Percentage of inhibition at 30 mg/kg (p.o),Plasmodium yoelli,100%
same,ED50,P. berghei ANKA [13],2.7 mg/kg
"O=C(CC1CCC2(CC1)OOC1(CCCCC1)OO2)NC1CC1 [Tetraoxane 27c, N-Cyclopropyl-2-(7,8,15,16-tetraoxa-dispiro[5.2.5.2]hexadec-3-yl)-acetamide]",melting point,,148 to 150 °C
same,Percentage of inhibition at 30 mg/kg (p.o),Plasmodium yoelli,24.8%
"CO[C@H]1O[C@@H]2O[C@@]3(C)CC[C@H]4[C@H](C)CC[C@@H]([C@H]1C)[C@@]24OO3 [Artemether, artemether, reference compound]",IC50,[1]; [17],1.7 nM
same,IC50,"[1]; 3D7, sulfonamide dispiro 1,2,4,5-tetraoxanes, Table 8, read-out: Mean IC50",3.2 nM
same,Percentage of inhibition at 30 mg/kg (p.o),Plasmodium yoelli,100%
same,ED90,P. berghei ANKA [13],10.57 mg/kg
same,ED50,P. berghei ANKA [13],5.88 mg/kg
"C[C@H]1[C@H](OC(=O)CCC(=O)O)O[C@@H]2O[C@@]3(C)CC[C@H]4[C@H](C)CC[C@@H]1[C@@]24OO3 [Artesunate, artesunate]",IC50,[4],0.9 nM
same,ED50,P. berghei ANKA [15],2.90 mg/kg
same,ED90,P. berghei ANKA [15]; sigmoidal curve calculation,17.78 mg/kg and 16.67 mg/kg
same,ED50,"P. berghei ANKA [15]; Plasmodium berghei, in Mus musculus",3.2 mg/kg
same,Percentage of inhibition at 30 mg/kg (p.o),Plasmodium yoelli,100%
"Nc1ccc2cc3ccccc3cc2c1 [Tetraoxane 2Aan, 2-Aminoanthracene, reference compound]",MCE NM2009 (Maximum Co w/o effects on bacteria growth or beta-galactosidase production),[2]; in the presence of rat S9,0.31* μg/mL
same,Max. Fold Increase,[2],1.08 ± 0.01 fold
same,Potential genotox,[2],NEG
same,MCE TA1535 (Maximum Co w/o effects on bacteria growth or β-galactosidase production),[3]; positive controls,5 µg/mL
same,Max. Fold Increase,[3],1.10 ± 0.11 fold
same,Potential genotox,[3],NEG
same,solubility,physchem,5 µg/mL
